Counter-ions that a name gives are not always drawn.
Target: T1, AR (Homo sapiens, UniProt P10275)
T1 construct: endogenous in cells; host or cells: VCaP cells
T1 sequence (P10275 1-920): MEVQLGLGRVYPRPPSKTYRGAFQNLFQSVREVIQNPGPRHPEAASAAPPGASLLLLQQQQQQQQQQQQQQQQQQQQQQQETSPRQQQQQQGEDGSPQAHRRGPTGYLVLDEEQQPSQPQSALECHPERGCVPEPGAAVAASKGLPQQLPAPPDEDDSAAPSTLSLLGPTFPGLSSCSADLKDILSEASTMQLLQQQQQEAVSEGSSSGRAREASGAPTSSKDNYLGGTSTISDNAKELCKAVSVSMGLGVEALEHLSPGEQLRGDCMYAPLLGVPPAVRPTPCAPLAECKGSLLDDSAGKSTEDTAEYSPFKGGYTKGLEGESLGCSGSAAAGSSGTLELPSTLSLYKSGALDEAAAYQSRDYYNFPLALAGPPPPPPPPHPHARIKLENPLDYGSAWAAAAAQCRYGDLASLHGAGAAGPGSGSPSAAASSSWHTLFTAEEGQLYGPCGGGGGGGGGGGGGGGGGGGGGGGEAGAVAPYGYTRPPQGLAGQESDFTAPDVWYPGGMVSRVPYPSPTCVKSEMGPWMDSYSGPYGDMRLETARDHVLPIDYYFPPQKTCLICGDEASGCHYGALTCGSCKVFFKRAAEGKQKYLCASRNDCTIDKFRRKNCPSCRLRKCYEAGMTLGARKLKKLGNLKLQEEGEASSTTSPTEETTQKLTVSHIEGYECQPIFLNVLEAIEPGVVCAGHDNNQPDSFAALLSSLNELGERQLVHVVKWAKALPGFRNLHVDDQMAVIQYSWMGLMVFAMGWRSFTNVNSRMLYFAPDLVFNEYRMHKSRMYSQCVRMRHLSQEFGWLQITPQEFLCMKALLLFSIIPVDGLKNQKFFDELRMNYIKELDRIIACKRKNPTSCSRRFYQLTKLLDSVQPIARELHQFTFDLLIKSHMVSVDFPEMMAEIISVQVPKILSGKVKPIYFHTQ
Assay: VCAP AR Degradation Assay
Assay type: cell-based
Settings: for Y (AR degradation efficiency, % of DMSO control): class symbols *; for DC50: class symbols A-C, read-out: DC50
Procedure, shortened: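 VCaP cells treated 24 h at 37 °C with a 10-point 1:3 series (top 5 μM final; 0.1% DMSO control). Lysate AR measured by sandwich ELISA, normalized to DMSO as percent of control; DC50, EC50 and lowest AR level (Y) from four-parameter logistic fit.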

Compound	Y (AR degradation efficiency, % of DMSO control)	DC50 [nM]
CC(C)c1cc(N2C(=S)N(c3ccc(C#N)c(Cl)c3)C(=O)C2(C)C)ccc1OCCN1C[C@@H](C)N(CC(=O)Nc2cccc(NC3CCC(=O)NC3=O)c2)[C@@H](C)C1 (stereo partly drawn) [Example 202, 2-((2S,6R)-4-(2-(4-(3-(3-chloro-4-cyanophenyl)-5,5-dimethyl-4-oxo-2-thioxoimidazolidin-1-yl)-2-isopropylphenoxy)ethyl)-2,6-dimethylpiperazin-1-yl)-N-(3-(2,6-dioxopiperidin-3-ylamino)phenyl)acetamide]	* (0<Y<=25%)	< 100
C[C@@H]1CN(CC(=O)Nc2cccc(NC3CCC(=O)NC3=O)c2)[C@H](C)CN1CCOc1ccc(N2C(=S)N(c3ccc(C#N)c(Cl)c3)C(=O)C2(C)C)cc1C1CC1 (stereo partly drawn) [Example 205, 2-((2R,5R)-4-(2-(4-(3-(3-chloro-4-cyanophenyl)-5,5-dimethyl-4-oxo-2-thioxoimidazolidin-1-yl)-2-cyclopropylphenoxy)ethyl)-2,5-dimethylpiperazin-1-yl)-N-(3-(2,6-dioxopiperidin-3-ylamino)phenyl)acetamide]	* (0<Y<=25%)	< 100
C[C@@H]1CN(CCOc2ccc(N3C(=S)N(c4cnc(C#N)c(C(F)(F)F)c4)C(=O)C34CCC4)cc2C2CC2)C[C@H](C)N1CC(=O)Nc1cc(F)cc(NC2CCC(=O)NC2=O)c1 (stereo partly drawn) [Example 218, 2-((2S,6R)-4-(2-(4-(7-(6-cyano-5-(trifluoromethyl)pyridin-3-yl)-8-oxo-6-thioxo-5,7-diazaspiro[3.4]octan-5-yl)-2-cyclopropylphenoxy)ethyl)-2,6-dimethylpiperazin-1-yl)-N-(3-(2,6-dioxopiperidin-3-ylamino)-5-fluorophenyl)acetamide]	* (0<Y<=25%)	< 100
N#Cc1ccc(N2C(=O)C3(CCC3)N(c3ccc(OCCN4CCN(CC(=O)Nc5cccc(NC6CCC(=O)NC6=O)c5)CC4)c(F)c3)C2=S)cc1C(F)(F)F (stereo not drawn) [Example 8, hydrochloride]	** (25%<Y<=35%)	< 100
CC(C)c1cc(N2C(=S)N(c3cnc(C#N)c(C(F)(F)F)c3)C(=O)C2(C)C)ccc1OCCN1CCN(CC(=O)Nc2cccc(NC3CCC(=O)NC3=O)c2)CC1 (stereo not drawn) [Example 53, 2-(4-(2-(4-(3-(6-cyano-5-(trifluoromethyl)pyridin-3-yl)-5,5-dimethyl-4-oxo-2-thioxoimidazolidin-1-yl)-2-isopropylphenoxy)ethyl)piperazin-1-yl)-N-(3-(2,6-dioxopiperidin-3-ylamino)phenyl)acetamide]	* (0<Y<=25%)	< 100
CCc1cc(N2C(=S)N(c3ccc(C#N)c(C(F)(F)F)c3)C(=O)C23CCC3)ccc1OCCN1CCN(CC(=O)Nc2cccc(NC3CCC(=O)NC3=O)c2)CC1 (stereo not drawn) [Example 132, 2-(4-(2-(4-(7-(4-cyano-3-(trifluoromethyl)phenyl)-8-oxo-6-thioxo-5,7-diazaspiro[3.4]octan-5-yl)-2-ethylphenoxy)ethyl)piperazin-1-yl)-N-(3-(2,6-dioxopiperidin-3-ylamino)phenyl)acetamide]	* (0<Y<=25%)	< 100
Cc1cc(NC(=O)CN2CCN(CCOc3ccc(N4C(=S)N(c5ccc(C#N)c(C(F)(F)F)c5)C(=O)C4(C)C)cc3F)CC2)cc(NC2CCC(=O)NC2=O)c1 (stereo not drawn) [Example 15, hydrochloride]	** (25%<Y<=35%)	< 100
CCc1cc(N2C(=S)N(c3ccc(C#N)c(C(F)(F)F)c3)C(=O)C2(C)C)ccc1OCCN1CCN(CC(=O)Nc2cccc(N[C@@H]3CCC(=O)NC3=O)c2)CC1 [Example 28, hydrochloride]	* (0<Y<=25%)	< 100
C[C@@H]1CN(CCOc2ccc(N3C(=S)N(c4ccc(C#N)c(C(F)(F)F)c4)C(=O)C3(C)C)cc2C2CC2)C[C@H](C)N1CC(=O)Nc1cccc(N[C@@H]2CCC(=O)NC2=O)c1 [Example 288, 2-((2R,6S)-4-(2-(4-(3-(4-cyano-3-(trifluoromethyl)phenyl)-5,5-dimethyl-4-oxo-2-thioxoimidazolidin-1-yl)-2-cyclopropylphenoxy)ethyl)-2,6-dimethylpiperazin-1-yl)-N-(3-((R)-2,6-dioxopiperidin-3-ylamino)phenyl)acetamide]	* (0<Y<=25%)	< 100
CCc1cc(N2C(=S)N(c3ccc(C#N)c(C(F)(F)F)c3)C(=O)C2(C)C)cnc1OCCN1CCN(CC(=O)Nc2cc(Cl)cc(NC3CCC(=O)NC3=O)c2)CC1 (stereo not drawn) [Example 69, N-(3-chloro-5-(2,6-dioxopiperidin-3-ylamino)phenyl)-2-(4-(2-(5-(3-(4-cyano-3-(trifluoromethyl)phenyl)-5,5-dimethyl-4-oxo-2-thioxoimidazolidin-1-yl)-3-ethylpyridin-2-yloxy)ethyl)piperazin-1-yl)acetamide]	* (0<Y<=25%)	< 100
CCc1cc(N2C(=S)N(c3cnc(C#N)c(C(F)(F)F)c3)C(=O)C2(C)C)ccc1OCCN1CCN(CC(=O)Nc2cccc(NC3CCC(=O)NC3=O)c2)C(C)(C)C1 (stereo not drawn) [Example 97, 2-(4-(2-(4-(3-(6-cyano-5-(trifluoromethyl)pyridin-3-yl)-5,5-dimethyl-4-oxo-2-thioxoimidazolidin-1-yl)-2-ethylphenoxy)ethyl)-2,2-dimethylpiperazin-1-yl)-N-(3-(2,6-dioxopiperidin-3-ylamino)phenyl)acetamide]	* (0<Y<=25%)	< 100
CCc1cc(N2C(=S)N(c3ccc(C#N)c(C(F)(F)F)c3)C(=O)C2(C)C)ccc1O[C@@H](C)CN1C[C@@H](C)N(CC(=O)Nc2cccc(NC3CCC(=O)NC3=O)c2)[C@@H](C)C1 (single isomer, unassigned) [Example 242]	*** (35%<Y<50%)	500 to 1000
CC1(C)C(=O)N(c2ccc(C#N)c(C(F)(F)F)c2)C(=S)N1c1ccc(OCCN2CCN(CC(=O)Nc3cc(Cl)cc(NC4CCC(=O)NC4=O)c3)CC2)c(CC(F)F)c1 (stereo not drawn) [Example 159, N-(3-chloro-5-(2,6-dioxopiperidin-3-ylamino)phenyl)-2-(4-(2-(4-(3-(4-cyano-3-(trifluoromethyl)phenyl)-5,5-dimethyl-4-oxo-2-thioxoimidazolidin-1-yl)-2-(2,2-difluoroethyl)phenoxy)ethyl)piperazin-1-yl)acetamide]	* (0<Y<=25%)	< 100
CCc1cc(N2C(=S)N(c3cnc(C#N)c(C(F)(F)F)c3)C(=O)C2(C)C)ccc1O[C@@H](C)CN1C[C@@H](C)N(CC(=O)Nc2cccc(NC3CCC(=O)NC3=O)c2)[C@@H](C)C1 (single isomer, unassigned) [Example 240]	** (25%<Y<=35%)	100 to 500
CCc1cc(N2C(=S)N(c3ccc(C#N)c(C(F)(F)F)c3)C(=O)C2(C)C)ccc1OCCN1C[C@H](C)N(CC(=O)Nc2cccc(NC3CCC(=O)NC3=O)c2)C[C@@H]1C (stereo partly drawn) [Example 125, 2-((2S,5S)-4-(2-(4-(3-(4-cyano-3-(trifluoromethyl)phenyl)-5,5-dimethyl-4-oxo-2-thioxoimidazolidin-1-yl)-2-ethylphenoxy)ethyl)-2,5-dimethylpiperazin-1-yl)-N-(3-(2,6-dioxopiperidin-3-ylamino)phenyl)acetamide]	* (0<Y<=25%)	100 to 500

From US12404241B2 (Celgene Corporation, priority 2018, dated 2025)
